Where a name gives a salt, the structure may show the parent alone. Read-outs that look alike come from different tables or passages of the source. Values belong to the molecule of their own block, whether it stands above or below them.
Tests used:
dopamine D2 receptor = biological target: T1, dopamine D2 receptor (Homo sapiens, UniProt P14416); assay: Competitive inhibition test using radioligands ([3H]-sulpiride), D2 receptor; format: binding; conditions: for D2 Receptor Displacement (%) / inhibition: [3H]-sulpiride; for Ki: [3H]-sulpiride competition, HEK-293 cells, read-out: KiD2R; for inhibition: read-out: D2 Receptor Displacement (%)
T1 construct: expressed in transfected cells; host or cells: Human embryonic kidney-293 cells
T1 sequence (P14416 whole entry): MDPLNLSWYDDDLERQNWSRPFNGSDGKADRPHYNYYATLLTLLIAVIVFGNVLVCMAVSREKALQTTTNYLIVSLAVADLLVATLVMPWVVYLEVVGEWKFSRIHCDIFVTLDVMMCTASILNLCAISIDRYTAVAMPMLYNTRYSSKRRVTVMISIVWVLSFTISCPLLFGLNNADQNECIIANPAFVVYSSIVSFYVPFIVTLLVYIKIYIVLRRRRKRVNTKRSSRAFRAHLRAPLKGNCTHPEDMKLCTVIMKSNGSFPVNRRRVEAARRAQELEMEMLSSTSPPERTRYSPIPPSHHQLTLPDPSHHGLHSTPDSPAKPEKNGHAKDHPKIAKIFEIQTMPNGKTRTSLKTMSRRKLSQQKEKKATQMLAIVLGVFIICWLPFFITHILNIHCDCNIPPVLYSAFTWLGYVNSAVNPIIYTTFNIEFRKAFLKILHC
Description: (§2) Human embryonic kidney-293 cells were cultured in fresh MEM medium containing 10% fetal bovine serum, 100 units of penicillin, and 100 μg/mL streptomycin at 37° C. under 5% CO2. Cells were transfected with DNA plasmids of dopamine D2 and D3 receptors respectively by using polyethylenimine. After transfection for 4 hours, medium was replaced with fresh MEM medium containing fetal bovine serum and the cells were further cultured for 24 hours. The cells were seeded into 24-well plates and cultured for 14-16 hours or overnight. After the medium was discarded, the cells were rinsed with pre-cooled serum-free MEM. Radioligand ([^3H]-sulpiride) and various concentrations of compounds were added into the adherent cells, and incubated in a bath at 4° C. for 150 minutes. The cells were rinsed three times with pre-cooled MEM containing 10 mM HEPES to remove unbound ligands. After the medium was completely removed, the cells were lysed with 1% sodium lauryl sulfate. The remaining radioligands were detected with a liquid scintillation counter to calculate the relative amount of bound compounds.

dopamine D3 receptor [1] = biological target: T2, dopamine D3 receptor (Homo sapiens, UniProt P35462)
T2 sequence (P35462 whole entry): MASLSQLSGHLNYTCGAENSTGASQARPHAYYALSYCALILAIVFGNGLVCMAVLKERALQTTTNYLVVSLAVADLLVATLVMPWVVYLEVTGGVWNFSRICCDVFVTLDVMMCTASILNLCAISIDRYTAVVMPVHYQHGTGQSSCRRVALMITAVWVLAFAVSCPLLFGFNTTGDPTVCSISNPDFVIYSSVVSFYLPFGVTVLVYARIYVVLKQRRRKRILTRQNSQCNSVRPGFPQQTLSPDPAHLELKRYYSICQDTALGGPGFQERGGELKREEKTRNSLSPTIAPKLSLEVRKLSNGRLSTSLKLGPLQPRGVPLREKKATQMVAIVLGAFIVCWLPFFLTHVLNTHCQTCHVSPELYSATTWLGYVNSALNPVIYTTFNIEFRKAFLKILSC
Description: as §2

[2] = Solubility assay in anhydrous ethanol; format: physicochemical; conditions: organic solvent or mixture
Description: (§1) Solubility Assay of the D3 Receptor-Selective Ligand

[3] = Solubility assay in water; format: physicochemical
Description: as §1

[4] = tested on: 6-OHDA-induced Parkinson's disease rats; assay: Rotarod assay in 6-hydroxydopamine-induced Parkinson's disease rats; format: in vivo, Sprague Dawley (SD) rats
Description: Experimental Sprague Dawley (SD) rats were randomly divided into an experimental group and a control group. After repeated behavior detection confirmed that there was no rotational behavior, the experiment was performed. Experimental group: rats were anesthetized with a mixture of xylazine (15 mg/kg, i.p.) and ketamine (100 mg/kg, i.p.), and then desipramine hydrochloride (25 mg/kg, s.c.) were used to protect noradrenergic neurons. 6 μg of 6-hydroxydopamine was dissolved in 2.3 μL of 0.9% sterile saline, and injected into the cerebral substantia nigra (antero-posterior −5.4 mm, […] from the bregma which was used as a zero coordinate) at a rate of 0.5 μL/min by using cerebral stereotaxic surgery. Rats in the control group were injected with the same dose of 0.9% sterile saline. After injection, the syringe needle was left in rats for 5 minutes before the needle was slowly withdrawn. After the rats awakened, they were placed in animal facilities for behavioral model evaluation to ensure that 6-hydroxydopamine induced the formation of a model with movement disorders and emotional/motivational disorders. Because hunger is prone to occur as a result of dopamine damage of the midbrain substantia nigra, 20% of rats were given high-calorie food for 1-2 weeks. After 19 days, the D3 receptor-selective ligand was continuously injected intraperitoneally for 3 days. Rats were allowed to accommodate the rotarod on days 19-20, and a rotarod assay was performed on days 21-22.

dopamine D3 receptor [5] = biological target: T2, dopamine D3 receptor; assay: cell-based
Description: as §2

[6] = arylpiperazine-phthalimide compounds at 100 nM, HEK-293 cells (Table 1)
[7] = arylpiperazine-arylurea compounds at 100 nM, HEK-293 cells (Table 2)

inhibition (dopamine D2 receptor; [6]): 64.8 ± 3.5%
SMILES: O=C1c2ccccc2C(=O)N1CCCCN1CCN(c2cccc(Cl)c2)CC1 [Compound 3h, 2-(4-(4-(3-chlorophenyl)piperazin-1-yl)butyl)isoindoline-1,3-dione]

inhibition (dopamine D2 receptor; [6]): -6.3 ± 4%
SMILES: O=C1c2ccccc2C(=O)N1CCCCN1CCN(c2ccc(F)cc2)CC1 [Compound 3c, 2-(4-(4-(4-fluorophenyl)piperazin-1-yl)butyl)isoindoline-1,3-dione]

D2 Receptor Displacement (%) (dopamine D2 receptor; [7]): −6.7 ± 4.2%
SMILES: O=C(NCCCCN1CCN(c2cccc(C(F)(F)F)c2)CC1)Nc1cnc2ccccc2c1 [Compound 8p, 1-(4-(4-(3-(trifluoromethyl)phenyl)piperazin-1-yl)butyl)-3-(quinolin-3-yl)urea]

D2 Receptor Displacement (%) (dopamine D2 receptor; [7]): 24.9 ± 1.8%
SMILES: O=C(NCCCCN1CCN(c2cc(C(F)(F)F)ccc2F)CC1)Nc1cnc2ccccc2c1 [Compound 8n, 1-(4-(4-(2-fluoro-5-(trifluoromethyl)phenyl)piperazin-1-yl)butyl)-3-(quinolin-3-yl)urea]

D2 Receptor Displacement (%) (dopamine D2 receptor; [7]): 40.8 ± 5.6%
SMILES: O=C(NCCCCN1CCN(c2ccc(Cl)cc2Cl)CC1)Nc1nc2ccccc2s1 [Compound 21k, 1-(benzothiazol-2-yl)-3-(4-(4-(2,4-dichlorophenyl)piperazin-1-yl)butyl)urea]

D2 Receptor Displacement (%) (dopamine D2 receptor; [6]): 10.3 ± 6.1%
SMILES: O=C1c2ccccc2C(=O)N1CCCCN1CCN(c2c(F)cccc2F)CC1 [Compound 3f, 2-(4-(4-(2,6-fluorophenyl)piperazin-1-yl)butyl)isoindoline-1,3-dione]

inhibition (dopamine D2 receptor; [6]): 2.8 ± 12%
SMILES: O=C1c2ccccc2C(=O)N1CCCCN1CCN(c2ccc(Cl)cc2F)CC1 [Compound 3m, 2-(4-(4-(4-chloro-2-fluorophenyl)piperazin-1-yl)butyl)isoindoline-1,3-dione]

inhibition (dopamine D2 receptor; [6]): 31.8 ± 3.3%
SMILES: O=C1c2ccccc2C(=O)N1CCCCN1CCN(c2ccccc2F)CC1 [Compound 3a, 2-(4-(4-(2-fluorophenyl)piperazin-1-yl)butyl)isoindoline-1,3-dione]

inhibition (dopamine D2 receptor; [6]): 28.7 ± 3.3%
SMILES: O=C1c2ccccc2C(=O)N1CCCCN1CCN(c2ccccc2Cl)CC1 [Compound 3g, 2-(4-(4-(2-chlorophenyl)piperazin-1-yl)butyl)isoindoline-1,3-dione]

Ki (dopamine D3 receptor [1]): 0.0193 µM
Ki (dopamine D2 receptor): 2.16 µM
D2 Receptor Displacement (%) (dopamine D2 receptor; [6]): 17.7 ± 3.7%
SMILES: O=C1c2ccccc2C(=O)N1CCCCN1CCN(c2cccc(F)c2F)CC1 [Compound 3d, 2-(4-(4-(2,3-fluorophenyl)piperazin-1-yl)butyl)isoindoline-1,3-dione]

inhibition (dopamine D2 receptor; [7]): 36.8 ± 6.5%
SMILES: O=C(NCCCCN1CCN(c2ccc(Cl)cc2)CC1)Nc1nc2ccccc2s1 [Compound 21i, 1-(benzothiazol-2-yl)-3-(4-(4-(4-chlorophenyl)piperazin-1-yl)butyl)urea]

inhibition (dopamine D2 receptor; [6]): -4.7 ± 7.8%
SMILES: O=C1c2ccccc2C(=O)N1CCCCN1CCN(c2cc(C(F)(F)F)ccc2F)CC1 [Compound 3n, 2-(4-(4-(2-fluoro-5-(trifluoromethyl)phenyl)piperazin-1-yl)butyl)isoindoline-1,3-dione]

inhibition (dopamine D2 receptor; [6]): 70.3 ± 2.7%
SMILES: O=C1c2ccccc2C(=O)N1CCCCN1CCN(c2cccc(Cl)c2Cl)CC1 [Compound 3j, 2-(4-(4-(2,3-dichlorophenyl)piperazin-1-yl)butyl)isoindoline-1,3-dione]

Ki (dopamine D3 receptor [5]): 6.21 µM
SMILES: O=C(NCCCCN1CCN(c2cccc(Cl)c2Cl)CC1)c1cc2ccccc2[nH]1 [Compound 31j, N-(4-(4-(2,3-dichlorophenyl)piperazin-1-yl)butyl)-1H-indole-2-carboxamide, reference compound]

D2 Receptor Displacement (%) (dopamine D2 receptor; [6]): 59.2 ± 18.3%
SMILES: O=C1c2ccccc2C(=O)N1CCCCN1CCN(c2ccc(Cl)cc2)CC1 [Compound 3i, 2-(4-(4-(4-chlorophenyl)piperazin-1-yl)butyl)isoindoline-1,3-dione]

D2 Receptor Displacement (%) (dopamine D2 receptor; [6]): 4.8 ± 6.5%
SMILES: O=C1c2ccccc2C(=O)N1CCCCN1CCN(c2ccc(F)cc2F)CC1 [Compound 3e, 2-(4-(4-(2,4-fluorophenyl)piperazin-1-yl)butyl)isoindoline-1,3-dione]

inhibition (dopamine D2 receptor; [6]): 44 ± 1.6%
SMILES: O=C1c2ccccc2C(=O)N1CCCCN1CCN(c2cccc(C(F)(F)F)c2)CC1 [Compound 3p, 2-(4-(4-(3-(trifluoromethyl)phenyl)piperazin-1-yl)butyl)isoindoline-1,3-dione]

inhibition (dopamine D2 receptor; [7]): 35.5 ± 3.4%
SMILES: O=C(NCCCCN1CCN(c2cccc(Cl)c2Cl)CC1)Nc1nc2ccccc2s1 [Compound 21j, 1-(benzothiazol-2-yl)-3-(4-(4-(2,3-dichlorophenyl)piperazin-1-yl)butyl)urea]

inhibition (dopamine D2 receptor; [7]): -14.7 ± 1.8%
SMILES: O=C(NCCCCN1CCN(c2ccc(Cl)cc2)CC1)Nc1cc2ccccc2cn1 [Compound 11i, 1-(4-(4-(4-chlorophenyl)piperazin-1-yl)butyl)-3-(isoquinolin-3-yl)urea]

Further lines, the molecule ahead of its results:

SMILES: O=C1c2ccccc2C(=O)N1CCCCN1CCN(c2ccc(Cl)cc2)CC1 [3i•HCl, 2-(4-(4-(4-chlorophenyl)piperazin-1-yl)butyl)isoindoline-1,3-dione]
D2 Receptor Displacement (%) (dopamine D2 receptor; [6]): 16.3 ± 4.2%

SMILES: O=C(NCCCCN1CCN(c2ccc(Cl)cc2Cl)CC1)c1cc2ccccc2[nH]1 [31k•HCl, N-(4-(4-(2,4-dichlorophenyl)piperazin-1-yl)butyl)-1H-indole-2-carboxamide, reference compound]
Ki (dopamine D2 receptor): > 23.9 µM

SMILES: O=C(NCCCCN1CCN(c2ccc(Cl)cc2)CC1)Nc1nc2ccccc2s1 [21i•HCl, 1-(benzothiazol-2-yl)-3-(4-(4-(4-chlorophenyl)piperazin-1-yl)butyl)urea]
D2 Receptor Displacement (%) (dopamine D2 receptor; [7]): 33.4 ± 5.9%

SMILES: O=C1c2ccccc2C(=O)N1CCCCN1CCN(c2ccc(Cl)cc2Cl)CC1 [3k•HCl, 2-(4-(4-(2,4-dichlorophenyl)piperazin-1-yl)butyl)isoindoline-1,3-dione]
inhibition (dopamine D2 receptor; [6]): 30.2 ± 3.4%

SMILES: O=C(NCCCCN1CCN(c2cccc(Cl)c2Cl)CC1)Nc1cnc2ccccc2c1 [8j•HCl, 1-(4-(4-(2,3-dichlorophenyl)piperazin-1-yl)butyl)-3-(quinolin-3-yl)urea]
inhibition (dopamine D2 receptor; [7]): 4.8 ± 4.3%

SMILES: O=C(NCCCCN1CCN(c2cc(C(F)(F)F)ccc2F)CC1)Nc1cnc2ccccc2c1 [8n•HCl, 1-(4-(4-(2-fluoro-5-(trifluoromethyl)phenyl)piperazin-1-yl)butyl)-3-(quinolin-3-yl)urea]
D2 Receptor Displacement (%) (dopamine D2 receptor; [7]): 10.7 ± 4.0%

SMILES: O=C(NCCCCN1CCN(c2ccc(Cl)cc2)CC1)Nc1ccc2ccccc2n1 [7i•HCl, 1-(4-(4-(4-chlorophenyl)piperazin-1-yl)butyl)-3-(quinolin-2-yl)urea]
inhibition (dopamine D2 receptor; [7]): 13.4 ± 8.5%

SMILES: O=C(NCCCCN1CCN(c2cccc(Cl)c2Cl)CC1)Nc1nc2ccccc2s1 [21j•HCl, 1-(benzothiazol-2-yl)-3-(4-(4-(2,3-dichlorophenyl)piperazin-1-yl)butyl)urea]
D2 Receptor Displacement (%) (dopamine D2 receptor; [7]): 52.1 ± 2.0%

SMILES: O=C(NCCCCN1CCN(c2ccc(Cl)cc2)CC1)Nc1cnc2ccccc2c1 [8i•HCl, 1-(4-(4-(4-chlorophenyl)piperazin-1-yl)butyl)-3-(quinolin-3-yl)urea]
solubility ([2]; 8.53 mg/mL): < 8530 µg/mL
solubility ([2]; 25.6 mg/mL): < 8530 µg/mL
Solubility in water ([3]; 1 mg/mL): + (+ indicates that the compound was completely dissolved)
Solubility in water ([3]; 3 mg/mL): + (+ indicates that the compound was completely dissolved)
Solubility in water ([3]; 6 mg/mL): + (+ indicates that the compound was completely dissolved)
Solubility in water ([3]; 12 mg/mL): + (+ indicates that the compound was completely dissolved)
effect compared with apomorphine (positive control drug) ([4]; 6-hydroxydopamine rats): comparable to the effect of apomorphine
motor dysfunction induced by 6-hydroxydopamine ([4]; intraperitoneal for 3 days): significantly improved
Ki (dopamine D2 receptor): 53.1 µM
D2 Receptor Displacement (%) (dopamine D2 receptor; [7]): 15.2 ± 1.6%
Ki (dopamine D3 receptor [5]): 0.0143 µM

SMILES: O=C(NCCCCN1CCN(c2cccc(C(F)(F)F)c2)CC1)Nc1cnc2ccccc2c1 [8p•HCl, 1-(4-(4-(3-(trifluoromethyl)phenyl)piperazin-1-yl)butyl)-3-(quinolin-3-yl)urea]
D2 Receptor Displacement (%) (dopamine D2 receptor; [7]): 84.1 ± 1.8%

SMILES: O=C1c2ccccc2C(=O)N1CCCCN1CCN(c2cccc(C(F)(F)F)c2)CC1 [3p•HCl, 2-(4-(4-(3-(trifluoromethyl)phenyl)piperazin-1-yl)butyl)isoindoline-1,3-dione]
D2 Receptor Displacement (%) (dopamine D2 receptor; [6]): 37.9 ± 2.8%

SMILES: CCN1CCCC1CNC(=O)c1cc(S(N)(=O)=O)ccc1OC (stereo not drawn) [sulpiride, reference compound]
inhibition (dopamine D2 receptor; [6]): 92.2 ± 0.1%

SMILES: O=C(NCCCCN1CCN(c2ccc(Cl)cc2Cl)CC1)Nc1nc2ccccc2s1 [21k•HCl, 1-(benzothiazol-2-yl)-3-(4-(4-(2,4-dichlorophenyl)piperazin-1-yl)butyl)urea]
D2 Receptor Displacement (%) (dopamine D2 receptor; [7]): 19.0 ± 1.4%

SMILES: O=C(NCCCCN1CCN(c2cccc(Cl)c2Cl)CC1)c1cc2ccccc2[nH]1 [31j•HCl, N-(4-(4-(2,3-dichlorophenyl)piperazin-1-yl)butyl)-1H-indole-2-carboxamide, reference compound]
Ki (dopamine D3 receptor [1]): 0.0156 µM

Source: patent publication US12319659B2, “Selective ligand for dopamine D3 receptor, preparation method therefor, and pharmaceutical application thereof” (Shenzhen Linglan Bio-Pharmaceutical Technology Co., Ltd, priority 2017, dated 2025)
